Source: US20110183942A1, “Methods and Compositions for Treating Alzheimer's Disease” (UNIVERSITY OF MEDICINE AND DENTISTRY OF NEW JERSEY, priority 2008, published 2011)
Several values for one entry are separate records, joined by “and”; a condition that tells them apart may be missing. Equal values may be shown once. Entries after “also recorded” stand apart in the source; their conditions may differ. *1 amine or outer side, *2 acyl side, *3 side chain or, on linkers, in order; H or OH if unused. Where a SMILES comes first, the peptide text is derived from it. Bridges are numbered along the chain shown (N, C = ends). Roman numbers before positions name the chains, in order. [ ]: non-standard residue; d: D form. The star is where a group is joined. Actinocin(9to1) = Cc1c2oc3c(C)ccc(C(=O)[*:1])c3nc-2c(C(=O)[*:2])c(N)c1=O; NMeV = CN[C@H](C(=O)O)C(C)C; Cbz = O=C(OCc1ccccc1)*; Sar = CNCC(=O)O

Assays:
[1] = system: Arc protein in DIV14 forebrain neurons; assay: Western blot of Arc protein in cultured forebrain neurons; type: cell-based, mouse; details: for level of Arc protein, low dose cycloheximide: 10 min
Protocol: For biochemistry experiments, 0.4×10^6 neurons were added to each well of a 6-well plate (Coming) coated with poly-L-lysine. Growth medium consisted of NeuroBasal (Invitrogen) supplemented with 1% fetal bovine serum (Hyclone), 2% B27, 1% Glutamax (Invitrogen), 100 U/mL penicillin, and 100 U/mL streptomycin (Invitrogen). Neurons were fed twice per week with glia conditioned growth medium.
Transfected HEK293T cells or cultured neurons were treated with various drugs and then harvested in IP buffer supplemented with 1% Triton X-100 buffer and Complete™ EDTA-Free protease inhibitors. Soluble fractions were diluted with 4× SDS sample buffer.
The membrane was blocked with TBST (50 mM Tris, pH 7.5, with 150 mM NaCl, and 0.1% Tween-20) containing 5% non-fat milk for one hour at room temperature, followed by incubation with primary antibody in TBST buffer overnight at 4° C. After three washes with TBST buffer, membranes were incubated with HRP-conjugated anti-rabbit, or anti-mouse antibody in TBST for another hour. After three washes with TBST buffer, the membrane was treated with SuperSignal ECL substrate (Pierce) according to the manufacturer's protocol.
To reduce the background signal in the co-IP assay, HRP-conjugated HA or HPR conjugated myc antibody (Santa Cruz) was used when overexpressed proteins were tagged with HA or myc. […] Image J software (NIH) was used for quantification.

[2] = system: surface AMPA receptor (GluR2/3, GluR1) in cultured neurons; assay: Surface biotinylation assay of AMPA receptor subunits; type: cell-based, mouse
Protocol: For surface biotinylation, drug-treated cortical neurons were cooled on ice, washed twice with ice-cold PBS++ (1× PBS, 1 mM CaCl2, 0.5 mM MgCl2) and then incubated with PBS++ containing 1 mg/ml Sulfo-NHS-SSBiotin (Pierce) for 30 min at 4° C. Unreacted biotin was quenched by washing cells three times with PBS++ containing 100 mM Glycine (pH 7.4) (briefly once and for 5 min twice). Cultures were harvested in RIPA buffer and sonicated. Homogenates were centrifuged at […] for 20 min at 4° C. Fifteen % of supernatant was saved as the total protein. […] Precipitates were washed with RIPA buffer three times (5 min each time). All procedures were done at 4° C.

[3] = system: Arc protein in DIV14 hippocampal neurons; assay: Arc immunocytochemistry in cultured hippocampal neurons; type: cell-based, mouse; details: emetine 10 ng/ml, 10 min
Protocol: Immunocytochemistry of cultured neurons was performed as described (Shepherd et al., Neuron, 52, 475-484 (2006)). Briefly, DIV14 primary hippocampal neurons were fixed in fixation solution (4% paraformaldehyde, 4% sucrose containing 1× PBS) for 20 min at 4° C. and were permeabilized with 0.2% Triton X-100 in PBS for 10 min 4° C. Cells were then blocked for 1 hr at room temperature in 10% normal goat serum (NGS). Primary antibodies were diluted (1:250 of phospho-eEF2 antibody, 1:500 of PSD95, 1:300 for Arc) in 10% NGS and incubated with neurons for overnight at 4° C. Alexa 488, or Alexa 555-conjugated secondary antibodies (1:500; Molecular Probes) were diluted in 10% NGS and incubated at room temperature for 1 hr. Coverslips were mounted with PermaFluor containing DAPI (Invitrogen). All images were taken with same exposure and setting using Zeiss 510 Meta confocal microscope. Quantification of Arc levels was carried out using Image J software. For the measurement of dendritic Arc levels, average pixel intensity was measured in the primary dendrites 20 μm away from the soma.

[4] = system: global protein synthesis in cultured neurons; assay: Metabolic labeling, incorporation of 35S methionine and cysteine into TCA precipitant; type: cell-based; details: 100 nM cycloheximide
Protocol: To measure the incorporation of ^35S methionine and cysteine into new peptide, 30 μl protein labeling mix (Perkin Elmer) was added into 1.5 ml of regular culture medium (final 220 μCi/ml) for the time indicated in the figures. After washout once with ice-cold PBS, cells were lysed with 700 μl of RIPA buffer. After quantification of total amount of protein, equal amount of lysate (˜200 μl) was precipitated with 10% TCA.

[5] = system: hippocampal Schaffer collateral-CA1 synapses; assay: Field recording of fEPSP (mGluR-LTD) in acute hippocampal slices; type: cell-based, mouse; details: for DHPG-LTD in the presence of high dose cycloheximide: cycloheximide 60 μM, t=105 min
Protocol: For recording, slices were placed in a submersion recording chamber and perfused with 30° C. ACSF at a rate of 2 ml/min.
fEPSPs were recorded with extracellular recording electrodes (1.0 MΩ) filled with ACSF and placed in the stratum radiatum of area CA1. Synaptic responses were evoked by a 200-μsec current pulse to Schaffer collateral axons with a concentric bipolar tungsten stimulating electrode. Stable baseline responses were collected every 30 sec by using a stimulation intensity (10-30 μA) yielding 50-60% of the maximal fEPSP slope response.
mGluR-LTD was induced by a mGluR1/5 agonist, (R,S)-3,5-DHPG (Tocris), or by electrical stimulations. […] NMDAR dependent-LTD was induced by using 900 single pulses delivered at 1 Hz.

SMILES: CC(C)C[C@@H](C=O)NC(=O)[C@H](CC(C)C)NC(=O)[C@H](CC(C)C)NC(=O)OCc1ccccc1 [MG132] (Cbz-Leu-Leu-Leu-aldehyde)
- level of Arc protein with proteasome inhibitor ([1]; MG132 10 μM, 1 hr): increased the basal level of Arc protein; also recorded: increased the levels of Arc

SMILES: NC1=N[C@H](O)[C@H]2[C@H]3O[C@]4(O)O[C@@H]([C@@H](O)[C@@]2(N1)[C@@H]4O)[C@]3(O)CO [TTX, tetrodotoxin]
- surface expression of GluR1 [2]: increased the surface expression of GluR1

SMILES: Cc1c2oc3c(C)ccc(C(=O)N[C@@H]4C(=O)N[C@H](C(C)C)C(=O)N5CCC[C@H]5C(=O)N(C)CC(=O)N(C)[C@@H](C(C)C)C(=O)O[C@@H]4C)c3nc-2c(C(=O)N[C@@H]2C(=O)N[C@H](C(C)C)C(=O)N3CCC[C@H]3C(=O)N(C)CC(=O)N(C)[C@@H](C(C)C)C(=O)O[C@@H]2C)c(N)c1=O [Actinomycin D] (I: T[dV]P[Sar][NMeV] / II: T[dV]P[Sar][NMeV]; ester I:1-I:C, II:1-II:C; linker I:N-II:N via Actinocin(9to1))
- effect on induction of Arc protein by DHPG (5 min) [1]: did not alter; also recorded: did not block
- basal levels of Arc with transcription inhibitor ([1]; ActD 10 μM, 1 hr): decreased the basal levels of Arc

SMILES: CC[C@H]1CN2CCc3cc(OC)c(OC)cc3[C@@H]2C[C@@H]1C[C@H]1NCCc2cc(OC)c(OC)cc21 [emetine]
- effect on rapid DHPG-induced increase of Arc (immunocytochemistry) [3]: blocked

SMILES: C[C@@H]1C[C@@H]([C@H](O)CC2CC(=O)NC(=O)C2)C(=O)[C@@H](C)C1 [cycloheximide]
- total incorporation of 35S labeled methionine and cysteine into TCA precipitant [4]: ~60%
- fEPSP slope, low dose cycloheximide + DHPG [5]: 75.7±7.4 % of baseline and 69.0±2.6 % of baseline
- DHPG-LTD in the presence of high dose cycloheximide ([5]; Fmr1 KO slices): 72.3±4.8 % of baseline
- DHPG-LTD in the presence of high dose cycloheximide ([5]; WT (FVB) slices): 95.5±2.9 % of baseline
- baseline synaptic transmission, low dose cycloheximide without mGluR stimulation ([5]; WT slices): 101.2±2.0%
- baseline synaptic transmission, low dose cycloheximide without mGluR stimulation ([5]; eEF2K KO slices): 100.4±4.6%
- effect on induction of Arc protein by DHPG (5 min) [1]: blocked
- induction of Arc, high dose cycloheximide ([1]; >1 uM, WT and eEF2K KO neurons): did not induce Arc
- level of Arc protein, low dose cycloheximide ([1]; WT neurons, low dose (50-100 nM)): increased Arc protein
- level of Arc protein, low dose cycloheximide ([1]; WT neurons, low dose (50-100 nM), listed as CHX): increased the level of Arc protein
- level of Arc protein, low dose cycloheximide ([1]; eEF2K KO neurons, 50 nM and 100 nM): increased the level of Arc protein
